Assay results taken from US20120045393A1 (priority 2009, published 2012).
Like-named read-outs stand apart in the source and are kept apart here. Non-standard residues stand in square brackets, D forms with d. Residues, ends and D or L forms follow the SMILES beside them. *: point of attachment. DOTA = O=C(O)CN1CCN(CC(=O)O)CCN(CC(=O)*)CCN(CC(=O)O)CC1; Bpa = N[C@@H](Cc1ccc(C(=O)c2ccccc2)cc1)C(=O)O; Ala(4-thiazolyl) = N[C@@H](Cc1cscn1)C(=O)O; d2Nal = N[C@H](Cc1ccc2ccccc2c1)C(=O)O; His(π-Me) = Cn1cncc1C[C@H](N)C(=O)O; azaGly = NNC(=O)O; Sar = CNCC(=O)O

System: LHRH binding sites on human ovarian cancer cells (EFO-27)
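Also: Cell-associated radioactivity on confluent EFO-27 monolayers in 96-well plates, measured by microplate scintillation counting.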

| Compound | EC50 | also measured |
| --- | --- | --- |
| N=C(N)NCCC[C@H](NC(=O)[C@@H](Cc1ccc2ccccc2c1)NC(=O)CC[C@H](CCCCN)NC(=O)CN1CCN(CC(=O)O)CCN(CC(=O)O)CCN(CC(=O)O)CC1)C(=O)N[C@@H](Cc1c[nH]c2ccccc12)C(=O)N[C@@H](CO)C(=O)N[C@@H](Cc1c[nH]cn1)C(=O)N[C@H](CCCNC(=N)N)C(=O)N[C@@H](Cc1c[nH]c2ccccc12)C(=O)N[C@@H](Cc1ccc(C(=O)c2ccccc2)cc1)C(=O)N1CCC[C@H]1C(=O)NCCOCCOCCN [BRU-3100] | – | EC50 (read-out: EC50 μM, Underivatized LHRH peptides and LHRH peptides with chelator on N-terminus, EFO-27 cells): 0.14 µM |
| CN(CC(=O)N[C@@H](Cc1c[nH]cn1)C(=O)N[C@@H](Cc1c[nH]c2ccccc12)C(=O)N[C@@H](CO)C(=O)N[C@@H](Cc1c[nH]cn1)C(=O)N[C@H](CCCNC(=N)N)C(=O)N[C@@H](Cc1c[nH]c2ccccc12)C(=O)N1CCC[C@H]1C(=O)NNC(N)=O)C(=O)CN1CCN(CC(=O)O)CCN(CC(=O)O)CCN(CC(=O)O)CC1 [BRU-2767] (HELM PEPTIDE1{[O=C(O)CN1CCN(CC(=O)O)CCN(CC(=O)[*:2])CCN(CC(=O)O)CC1].[Sar].H.W.S.H.[dR].W.P.[O=C(NN[*:1])[*:2]].[am]}$$$$V2.0) | 10 µM | – |
| COCCN(CC(=O)N[C@@H](Cc1c[nH]cn1)C(=O)N[C@@H](Cc1c[nH]c2ccccc12)C(=O)N[C@@H](CO)C(=O)N[C@@H](Cc1c[nH]cn1)C(=O)N[C@H](CCCNC(=N)N)C(=O)N[C@@H](Cc1c[nH]c2ccccc12)C(=O)N[C@@H](Cc1ccc(C(=O)c2ccccc2)cc1)C(=O)N1CCC[C@H]1C(=O)NNC(N)=O)C(=O)CNC(=O)CN1CCN(CC(=O)O)CCN(CC(=O)O)CCN(CC(=O)O)CC1 [compound 2796] | – | EC50 (Table 8: N-substituted amino acid at position 1 and Gly as linker, in vitro binding on EFO-27 cells): 0.34 µM |
| N=C(N)NCCC[C@H](NC(=O)[C@@H](Cc1ccc2ccccc2c1)NC(=O)CN1CCN(CC(=O)O)CCN(CC(=O)O)CCN(CC(=O)O)CC1)C(=O)N[C@@H](Cc1c[nH]c2ccccc12)C(=O)N[C@@H](CO)C(=O)N[C@@H](Cc1c[nH]cn1)C(=O)N[C@H](CCCNC(=N)N)C(=O)N[C@@H](Cc1c[nH]c2ccccc12)C(=O)N[C@@H](Cc1ccc(C(=O)c2ccccc2)cc1)C(=O)N1C[C@@H](N)C[C@H]1C(=O)NNC(N)=O [compound 3062] | – | EC50 (EFO-27 cells, competition with [125I-Tyr8]BRU-2477, 90 min): 0.32 µM |

Second part, led by results:

| EC50 | Compound | also measured |
| --- | --- | --- |
| 3.28 µM | N=C(N)NCCC[C@H](NC(=O)[C@H](CO)NC(=O)[C@H](Cc1c[nH]c2ccccc12)NC(=O)[C@H](CCCNC(=N)N)NC(=O)[C@@H](Cc1ccc2ccccc2c1)NC(=O)CN1CCN(CC(=O)O)CCN(CC(=O)O)CCN(CC(=O)O)CC1)C(=O)N[C@H](Cc1c[nH]c2ccccc12)C(=O)N[C@@H](Cc1c[nH]c2ccccc12)C(=O)N[C@@H](Cc1ccc(C(=O)c2ccccc2)cc1)C(=O)N1CCC[C@H]1C(=O)NNC(N)=O [compound 3001] ({DOTA}-[d2Nal]RWSR[dW]W[Bpa]P[azaGly]-NH2) | – |
| 0.24 ± 0.08 µM | CNCC(=O)N[C@@H](CCCNC(=N)N)C(=O)N[C@@H](Cc1c[nH]c2ccccc12)C(=O)N[C@@H](CO)C(=O)N[C@@H](Cc1c[nH]cn1)C(=O)N[C@H](CCCNC(=N)N)C(=O)N[C@@H](Cc1c[nH]c2ccccc12)C(=O)N[C@@H](Cc1ccc(C(=O)c2ccccc2)cc1)C(=O)N1CCC[C@H]1C(=O)NCCCN1CCN(CCCNC(=O)CN2CCN(CC(=O)O)CCN(CC(=O)O)CCN(CC(=O)O)CC2)CC1 [compound 3044] | – |
| 0.23 ± 0.1 µM | CNCC(=O)N[C@@H](CCCNC(=N)N)C(=O)N[C@@H](Cc1c[nH]c2ccccc12)C(=O)N[C@@H](CO)C(=O)N[C@@H](Cc1c[nH]cn1)C(=O)N[C@H](CCCNC(=N)N)C(=O)N[C@@H](Cc1c[nH]c2ccccc12)C(=O)N[C@@H](Cc1ccc(C(=O)c2ccccc2)cc1)C(=O)N1CCC[C@H]1C(=O)NCc1cccc(CNC(=O)CN2CCN(CC(=O)O)CCN(CC(=O)O)CCN(CC(=O)O)CC2)n1 [compound 3080] | – |
| 5.28 µM | CN(CC(=O)N[C@@H](Cc1cncn1C)C(=O)N[C@@H](Cc1c[nH]c2ccccc12)C(=O)N[C@@H](CO)C(=O)N[C@@H](Cc1cscn1)C(=O)N[C@H](CCCNC(=N)N)C(=O)N[C@@H](Cc1c[nH]c2ccccc12)C(=O)N[C@@H](Cc1ccc(C(=O)c2ccccc2)cc1)C(=O)N1CCC[C@H]1C(=O)NNC(N)=O)C(=O)CN1CCN(CC(=O)O)CCN(CC(=O)O)CCN(CC(=O)O)CC1 [BRU-2739] ({DOTA}-[Sar][His(π-Me)]WS[Ala(4-thiazolyl)][dR]W[Bpa]P[azaGly]-NH2; C-terminus assumed) | – |
